Test results: patent US12440479B2, “Prevention or treatment of chronic organ injury” (GEORG-AUGUST-UNIVERSITAET GOETTINGEN, STIFTUNG …, priority 2018, dated 2025)

Test system: ARNT, ALK3, pSmad1/5/8
Assay: Kidney allograft biopsies of transplant recipients (immunolabelling, qRT-PCR)
Type: in vivo, human
Conditions: FK506-based immunosuppressive regimen as compared to CsA
Experimental: The use of parts of human specimens for research purposes as approved by the Ethics Committee of the University Medicine Göttingen, clinical data are presented in Table 6.
Paraffin-embedded specimens were deparaffinized in xylene and rehydrated in ethanol containing distilled water. Tissue sections were stained using polyclonal antibodies against ALK3 (sc-20736, Santa Cruz Biotechnology, Dallas, USA) and ARNT (3718S, Cell Signaling, Danvers, USA), peroxidase labeling was performed using Vectastain Universal Elite ABC Kit (Vector Laboratories, Burlingame, USA) according to the manufacturer's protocol. AEC Substrate-Chromogen (Dako, Glostrup, Denmark) was applied for peroxidase visualization according to the manufacturer's protocol. Nuclear counterstain was performed by using Mayer's Hematoxylin Solution (Sigma, St. Louis, USA). […]
For SYBR-based real-time PCR, cDNA synthesis was performed by using DNase I digestion (Invitrogen, Carlsbad, USA) and SuperScript II Reverse Transcriptase (Invitrogen, Carlsbad, USA) according to the manufacturer's protocol. […] The relative expression levels were calculated using the equation 2^−ddCt.

SMILES: C=CC[C@@H]1/C=C(\C)C[C@H](C)C[C@H](OC)[C@H]2O[C@@](O)(C(=O)C(=O)N3CCCC[C@H]3C(=O)O[C@H](/C(C)=C/[C@@H]3CC[C@@H](O)[C@H](OC)C3)[C@H](C)[C@@H](O)CC1=O)[C@H](C)C[C@@H]2OC [FK506, tacrolimus]
- immunolabelling of ARNT, ALK3 and pSmad1/5/8: significantly increased
- intrarenal ARNT and ALK3 mRNA expression levels: Transcriptional induction
